According to ChEMBL document CHEMBL3407483, “Novel 3-nitrotriazole-based amides and carbinols as bifunctional antichagasic agents” (J Med Chem, 2015):
The source made the active and inactive calls. No cut-off for these calls is given here.

How the values were obtained:
Trypanosoma brucei = assay: Activity of his-tagged recombinant Trypanosoma brucei type-1 nitroreductase assessed as oxidized NADH level per mg of protein after 5 mins by absorption spectrum analysis
L6 = assay: Cytotoxicity against rat L6 cells assessed as growth inhibition after 72 hrs by Alamar Blue assay; type: cell-based; details: L6, 72 h
[1] = Selectivity index, ratio of IC50 for rat L6 cells to IC50 for amastigote stage of Trypanosoma cruzi Tulahuen C4 infected in rat L6 cells; type: toxicity, cell-based; details: read-out: Ratio IC50
[2] = Selectivity index, ratio of IC50 for rat L6 cells to IC50 for trypomastigote stage of Trypanosoma brucei rhodesiense STIB 900; type: toxicity, cell-based; details: read-out: Ratio IC50
Trypanosoma cruzi [3] = assay: Activity of his-tagged recombinant Trypanosoma cruzi type-1 nitroreductase assessed as oxidized NADH level per mg of protein after 5 mins by absorption spectrum analysis
[4] = system: Trypanosoma brucei rhodesiense; assay: Antitrypanosomal activity against trypomastigote stage of Trypanosoma brucei rhodesiense STIB 900 assessed as parasite growth inhibition after 72 hrs by Alamar Blue assay; type: functional, organism-based; details: STIB 900, 72 h
Trypanosoma cruzi [5] = assay: Antitrypanosomal activity against amastigote stage of Trypanosoma cruzi Tulahuen C4 infected in rat L6 cells assessed as parasite growth inhibition after 96 hrs by colorimetric analysis; type: functional, organism-based; details: Tulahuen C4, L6, 96 h
Mus musculus [6] = assay: Toxicity in Balb/c mouse at 15 mg/kg/day, ip measured after 5 to 10 days; type: organism-based; design: route intraperitoneal; details: in vivo
Trypanosoma cruzi [7] = assay: Antichagasic activity against trypomastigote stage of Trypanosoma cruzi Brazil infected in Balb/c mouse assessed as parasite index at 15 mg/kg/day, ip measured after 5 days by luciferase reporter gene assay; type: functional; details: route intraperitoneal
Trypanosoma cruzi [8] = assay: Antichagasic activity against trypomastigote stage of Trypanosoma cruzi Brazil infected in Balb/c mouse assessed as reduction of parasite index at 15 mg/kg/day, ip measured after 10 days by luciferase reporter gene assay relative to control; type: functional; design: scale not given: the % may be the effect or the level left; details: route intraperitoneal
[9] = biological target: Sterol 14-alpha demethylase (Trypanosoma cruzi (strain CL Brener), UniProt Q7Z1V1); assay: Binding affinity to recombinant full-length Trypanosoma cruzi CYP51 by UV-spectrophotometric analysis; details: read-out: Kd(app)
[10] = Apparent permeability across apical to basolateral side in human Caco2 cells at 10 uM after 2 hrs by LC/MS/MS analysis; type: ADME, cell-based; details: caco-2, 2 h
[11] = Metabolic stability in human microsomes assessed as compound remaining at 1 uM after 60 mins by LC/MS/MS analysis in absence of NADPH; type: ADME, Microsome; details: read-out: Stability
[12] = Metabolic stability in mouse microsomes assessed as compound remaining at 1 uM after 60 mins by LC/MS/MS analysis in absence of NADPH; type: ADME, Microsome; details: read-out: Stability
Trypanosoma cruzi [13] = assay: Antichagasic activity against trypomastigote stage of Trypanosoma cruzi Brazil infected in Balb/c mouse assessed as reduction of parasite level at 15 mg/kg/day, ip measured after 5 days by luciferase reporter gene assay; type: functional, organism-based
[14] = Metabolic stability in human microsomes assessed as compound remaining at 1 uM after 60 mins by LC/MS/MS analysis in presence of NADPH; type: ADME, Microsome; details: read-out: Stability
[15] = system: Trypanosoma brucei brucei; assay: Selectivity ratio of IC50 for bloodstream form of Trypanosoma brucei brucei to IC50 for bloodstream form of Trypanosoma brucei brucei overexpressing type-1 nitroreductase; type: functional
[16] = Metabolic stability in mouse microsomes assessed as compound remaining at 1 uM after 60 mins by LC/MS/MS analysis in presence of NADPH; type: ADME, Microsome; details: read-out: Stability
[17] = system: Trypanosoma brucei brucei; assay: Antitrypanosomal activity against bloodstream form of Trypanosoma brucei brucei overexpressing type-1 nitroreductase; type: functional, organism-based
[18] = system: Trypanosoma brucei brucei; assay: Antitrypanosomal activity against bloodstream form of Trypanosoma brucei brucei; type: functional, organism-based
Trypanosoma cruzi [19] = assay: Potency index, ratio of benznidazole IC50 to compound IC50 for amastigote stage of Trypanosoma cruzi Tulahuen C4 infected in rat L6 cells; type: functional
Mus musculus [20] = assay: Toxicity in Balb/c mouse at 13 mg/kg/day, ip measured after 5 to 10 days; type: organism-based; design: route intraperitoneal; details: in vivo
Trypanosoma cruzi [21] = assay: Antichagasic activity against trypomastigote stage of Trypanosoma cruzi Brazil infected in Balb/c mouse assessed as reduction of parasite level at 13 mg/kg/day, ip measured after 5 days by luciferase reporter gene assay; type: functional, organism-based
Trypanosoma cruzi [22] = assay: Antichagasic activity against trypomastigote stage of Trypanosoma cruzi Brazil infected in Balb/c mouse assessed as reduction of parasite index at 13 mg/kg/day, ip measured after 10 days by luciferase reporter gene assay relative to control; type: functional; design: scale not given: the % may be the effect or the level left; details: route intraperitoneal

Chain of Sterol 14-alpha demethylase (Q7Z1V1 whole entry): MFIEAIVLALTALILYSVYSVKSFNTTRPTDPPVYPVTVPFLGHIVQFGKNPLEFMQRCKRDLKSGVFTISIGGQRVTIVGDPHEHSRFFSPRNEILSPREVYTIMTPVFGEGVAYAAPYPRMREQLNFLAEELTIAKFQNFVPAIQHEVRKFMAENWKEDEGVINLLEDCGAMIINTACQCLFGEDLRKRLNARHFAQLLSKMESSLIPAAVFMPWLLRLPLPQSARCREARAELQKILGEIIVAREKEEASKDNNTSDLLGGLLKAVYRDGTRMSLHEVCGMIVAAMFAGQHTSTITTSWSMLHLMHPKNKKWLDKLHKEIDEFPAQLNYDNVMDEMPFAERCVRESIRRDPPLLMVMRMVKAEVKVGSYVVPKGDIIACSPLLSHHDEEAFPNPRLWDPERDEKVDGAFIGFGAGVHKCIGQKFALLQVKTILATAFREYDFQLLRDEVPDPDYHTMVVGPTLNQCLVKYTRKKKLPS

Compound | IC50 (L6) [µM] | selectivity ratio [1] | selectivity ratio [2] | IC50 [4] [µM] | IC50 (Trypanosoma cruzi [5]) [µM] | other results
CC(O)(Cn1cnc([N+](=O)[O-])n1)c1ccc(-n2ccnc2)cc1 (centres undefined) | > 318 | > 97 | > 173 | 1.84 | 3.29 | Activity (Trypanosoma brucei): 3460 nmol/min; Activity (Trypanosoma cruzi [3]): 1070 nmol/min
O=C(Cn1cnc([N+](=O)[O-])n1)Nc1ccc(N2CCCCC2)cc1 | 103 | 186 | – | 17 | 0.554 | –
CC(O)(Cn1cnc([N+](=O)[O-])n1)c1ccc(-c2ccccc2)cc1 (centres undefined) | 86 | 844 | 78.9 | 1.09 | 0.102 | –
CC1(c2ccc(-n3ccnc3)cc2)CO1 (centres undefined) | 277 | – | – | 76.2 | 188 | –
O=[N+]([O-])c1ncn(CC(O)(Cn2cncn2)c2ccc(F)cc2F)n1 (centres undefined) | 258 | 220 | – | 26.6 | 1.17 | Activity (Mus musculus [6]): Non-toxic; Activity (Trypanosoma brucei): 3060 nmol/min; Activity (Trypanosoma cruzi [7]): 24.9; Activity (Trypanosoma cruzi [8]): <4%; Activity (Trypanosoma cruzi [3]): 1180 nmol/min; Kd [9]: 0.606 µM
O=C(Cn1cnc([N+](=O)[O-])n1)Nc1nc(-c2ccc(Cl)cc2)cs1 | 98.8 | 973 | 24 | 4.06 | 0.102 | –
CC(O)(Cn1cncn1)c1ccc(-c2ccccc2)cc1 (centres undefined) | 114 | 162 | 1.74 | 65.6 | 0.706 | –
O=C(Cn1ccnc1[N+](=O)[O-])NCc1ccccc1 [BENZNIDAZOLE] | – | – | – | – | – | Activity (Mus musculus [6]): Non-toxic; Activity (Trypanosoma brucei): 1540 nmol/min; Activity (Trypanosoma cruzi [7]): 13.38; Activity (Trypanosoma cruzi [8]): <4%; Activity (Trypanosoma cruzi [3]): 680 nmol/min
O=C(Cn1cnc([N+](=O)[O-])n1)Nc1nnc(-c2ccc(Cl)cc2)s1 | > 274 | > 16.5 | – | 73.9 | 16.6 | –
CC(O)(Cn1cncn1)c1ccc(-n2ccnc2)cc1 (centres undefined) | > 372 | – | – | 153 | 157 | –
N#Cc1ccc(-c2ccc(NC(=O)Cn3cnc([N+](=O)[O-])n3)cc2)cc1 | 165 | 1190 | 490 | 0.336 | 0.138 | Activity (Mus musculus [6]): Non-toxic; Activity (Trypanosoma brucei): 3170 nmol/min; Papp [10]: 18.7 ×10⁻⁶ cm/s; remaining at 1 h, 1 µM [11]: 84.8%; remaining at 1 h, 1 µM [12]: 110%; Activity (Trypanosoma cruzi [8]): <4%; Activity (Trypanosoma cruzi [13]): Active; Activity (Trypanosoma cruzi [3]): 888 nmol/min; remaining at 1 h, 1 µM [14]: 96.8%; Ratio IC50 [15]: 2; remaining at 1 h, 1 µM [16]: 79.4%; IC50 [17]: 0.36 µM; IC50 [18]: 0.84 µM
OC(Cn1cncn1)(Cn1cncn1)c1ccc(F)cc1F [FLUCONAZOLE] | > 294 | – | – | – | 9.97 | –
O=C(Cn1cnc([N+](=O)[O-])n1)Nc1ccc(-c2ccc(Cl)cc2)cc1 | 126 | 2800 | 140 | 0.901 | 0.045 | Ratio IC50 (Trypanosoma cruzi [19]): 45; Activity (Mus musculus [20]): Non-toxic; Activity (Trypanosoma cruzi [21]): Active; Activity (Trypanosoma cruzi [22]): <4%
O=[N+]([O-])c1ncn(CC(O)(Cn2cncn2)c2ccc(-c3ccccc3)cc2)n1 (centres undefined) | 127 | 3810 | 44 | 2.88 | 0.033 | Activity (Mus musculus [6]): Non-toxic; Activity (Trypanosoma brucei): 2680 nmol/min; Papp [10]: 16.5 ×10⁻⁶ cm/s; Activity (Trypanosoma cruzi [7]): 42.04; remaining at 1 h, 1 µM [11]: 106%; remaining at 1 h, 1 µM [12]: 102%; Activity (Trypanosoma cruzi [8]): <4%; Ratio IC50 (Trypanosoma cruzi [19]): 68; Activity (Trypanosoma cruzi [3]): 1160 nmol/min; remaining at 1 h, 1 µM [14]: 90.7%; Kd [9]: 0.023 µM; remaining at 1 h, 1 µM [16]: 77.6%
O=C(Cn1cnc([N+](=O)[O-])n1)c1ccc(-c2ccccc2)cc1 | 220 | 1160 | 125 | 1.75 | 0.188 | –
O=C(Cn1cnc([N+](=O)[O-])n1)c1ccc(F)cc1F | 246 | 206 | – | 34.1 | 1.19 | –
Fc1ccc(C2(Cn3cncn3)Cn3ccnc3O2)c(F)c1 (centres undefined) | > 286 | > 49.4 | – | 221 | 5.79 | –
O=C(Cn1cncn1)c1ccc(-c2ccccc2)cc1 | 113 | 4.9 | – | 51.7 | 22.8 | –
O=C(Cn1cnc([N+](=O)[O-])n1)Nc1nc(-c2ccc(F)c(F)c2)cs1 | 88.1 | 192 | – | 16.1 | 0.459 | –
Cc1ccc(S(=O)(=O)NC(Cc2ccccc2)Cn2cnc([N+](=O)[O-])n2)cc1 (centres undefined) | 145 | 428 | – | 11.6 | 0.339 | –
O=C(Cn1ccnc1[N+](=O)[O-])c1ccc(-c2ccccc2)cc1 | 9.7 | – | – | 76.5 | 14.2 | –
O=C(Cn1ccnc1[N+](=O)[O-])Nc1nc(-c2ccc(F)c(F)c2)cs1 | 62.1 | 15.6 | – | 10 | 3.99 | –
Cc1nc(-c2cccc(NC(=O)Cn3cnc([N+](=O)[O-])n3)c2)cs1 | 67.3 | 122 | 10 | 7.04 | 0.552 | –
